Where two headings read alike, the source gives them in different places.
Assays:
[1] = plasma/blood, 120 mg dose of IR formulation; cited from earlier work
[2] = Early clinical studies: PK profile of Compound 1 given as immediate release (IR) formulation; assay type: in vivo; conditions: human, plasma, oral
Protocol: The formulations used in early clinical studies included a 0.1 mg/mL oral solution to support doses up to 5 mg; active-pharmaceutical-ingredient (API) in HPMC capsules for doses between 5 mg to 120 mg; and roller-compacted IR tablets of 10, 20 and 30 mg strength.
The pharmacokinetic (PK) profile of Compound 1 when administered as an immediate release (IR) formulation was characterized by rapid absorption and elimination with time to maximum concentration (Tmax) of approximately 2 hours post-dose. […] A majority of the systemic exposure to GSK2982772 was associated with the shorter half-life of 2-3 hours.

- half-life ([2]; phase until approximately 12 hours post-dose, read-out: elimination half-life (t1/2)): 2 to 3 h
- Tmax ([2]; post-dose, read-out: time to maximum concentration (Tmax)): ~2 h
- half-life ([2]; read-out: slower terminal phase t1/2): 5 to 6 h
Compound: CN1C(=O)[C@@H](NC(=O)c2nnc(Cc3ccccc3)[nH]2)COc2ccccc21 [Compound 1, (S)-5-benzyl-N-(5-methyl-4-oxo-2,3,4,5-tetrahydrobenzo[b][1,4]oxazepin-3-yl)-4H-1,2,4-triazole-3-carboxamide]
- t1/2 [1]: 2 to 3 h

— patent US20220218719A1, “MATRIX COMPOSITION COMPRISING (S)-5-BENZYL-N-(5-METHYL-4-OXO-2,3,4,5-TETRAHYDROBENZO[B][1,4]OXAZEPIN-3-YL)-4H-1,2,4-TRIAZOLE-3-CARBOXAMIDE” (GLAXOSMITHKLINE INTELLECTUAL PROPERTY DEVELOPMENT LIMITED, priority 2019, published 2022)
